The source of these data is patent publication US20260248961A1, “UTILIZATION OF A HIBERNATION-LIKE STATE IN NEUROLOGICAL DISEASES” (OKINAWA INSTITUTE OF SCIENCE AND TECHNOLOGY SCHOOL …, priority 2022, published 2026).

SMILES strings stand for the structures. Entries after “also recorded” stand apart in the source; their conditions may differ.

For one data set, the system named is contextual fear memory. Kind of data set: Contextual fear conditioning after QIH. Format: in vivo, mice. To be noted: after 48 hours of QIH and 72 hours recovery. As for the experimental part:
(§1) Two to three weeks after surgery, mice were first habituated to intraperitoneal (i.p.) injection of saline four times (once per day). On the day of QIH induction, mice were allowed to be habituated to the experimental room (15C) for 1 hour. A dose of 1 mg/kg of clozapine N-oxide (CNO) was i.p. injected to induce QIH in the same experimental room under darkness and low ambient temperatures of about 18-19 degrees celsius. Mice were allowed to stay in the room for 48 hours, and then returned to the housing colony once the QIH state had wore off.
Mice were first handled by an experimenter for at least 5 days to reduce their anxiety. During conditioning, the animals were first allowed to explore the context A (30.5L×24.1W×21H cm, metal grid floor, ethanol odor, white light, white noise) and then received 5 foot shocks (0.75 mA for 2 seconds with 30 seconds inter-shock-intervals). Next day, the same animals returned to the shocked context A and a novel neutral context B (30.5L×24.1W×21H cm, plastic flat floor, acetic acid odor, NIR light under darkness, triangle roof). After QIH induction and recovery, the mice were retested both in contexts A and B.

For another data set, the system named is pilocarpine model of TLE. The data set can be described thus: SRS onset monitoring after QIH induction during the latent period, pilocarpine model of TLE. The data set is classed as in vivo, mice. As for the experimental part:
as §1
(§2) On the day of seizure injection, mice were first i.p. injected with 0.07 mL of scopolamine solution (0.5 mg/mL) to prevent adverse peripheral side effects. Thirty minutes later, 280 mg/kg pilocarpine solution was i.p. injected to produce acute seizure. After the mice reach stage 3, 4, or 5 on the Racine scale of behavioral seizures (modified version below), the development of status epilepticus (SE) is confirmed as a continuous state of seizures characterised by a behavioral expression such as a prominent head tic, rigidity of body and tail, and immobility. One to 3 hours after the initial onset of SE, 0.04 mL of Midazolam (5 mg/mL) was i.p. injected to attenuate the seizures.
Animals are observed by trained personnel on a daily basis, starting with the first day after QIH exit. The monitoring process is performed while animals are in their homecages, in the experimental room. Observation is conducted for one hour per mouse per day using the scale above (table 1) to identify the severity of the behavioral seizures as they occur. For each mouse, the day on which the first seizure is observed, as well as the perceived severity, are recorded.

In data set [1] the test system is Q-neurons in the anteroventral periventricular nucleus (AVPe). The data set can be described thus: QIH induction by CNO with body temperature and extracellular tetrode recording. The data set is classed as in vivo, mice. As for the experimental part: All animals were single-housed prior to surgery. During surgery, mice were anesthetized with MMB (a cocktail of medetomidine, midazolam, and butorphanol) and 500 nL of AAV-hSyn-DIO-hM3D(Gq)-mCherry vector was infused through a small craniotomy above AVPe (ML ±0.3; AP +0.38; DV −5.0) at a rate of 50 nL per minute with a micropump syringe (World Precision Instrument). After infusion, the 35 G needle stayed at the infusion site for at least 15 minutes to allow diffusion of the vector. After surgery, animals were carefully monitored to full recovery. For LFP and single/multi-unit recording, we implanted a microdrive consisting of 9 independently adjustable tetrodes (14 um diameter, nichrome wire, gold plated to 200-300 kΩ). In the 2-3 weeks after surgery the depth of the tetrodes were slowly and manually adjusted until stable recording of LFP signals or separatable spike clusters was observed. All adjustments were conducted in a highly familiar small plastic bucket located in the recording room while the animals moved and behaved freely.
as §1
All data were acquired using 32-channel Digital Lynx 4SX acquisition system (Neuralynx). The local field potential (LFP) was filtered at 2-9000 Hz. Spike waveforms were filtered between 0.6-6 kHz and those above a peak threshold of […] were time-stamped and digitized at 32,556 Hz. Spikes were manually sorted using SpikeSort3D software (Neuralynx). In short, waveform amplitudes of all spikes recorded from three channels were projected to three dimensional space and putative units were clustered. This procedure was repeated for all combinations of channels and also for energy of spikes. […] A low-pass filter with a cut-off frequency equal to half the target sampling frequency was applied to the LFP prior to downsampling to prevent signal distortion.

The conditions of data set [2]: over four thousand adult patients (NPL17); cited from earlier work.
The nature of data set [3]: Seizure induction with pilocarpine. The data set is classed as in vivo, mice. As for the experimental part: as §2
For data set [4] the following is noted: applied on the epileptogenic zone; even after decades of monitoring (NPL22); cited from earlier work.

On to `C[N+]1([O-])CCN(C2=Nc3cc(Cl)ccc3Nc3ccccc32)CC1` [CNO, clozapine-N-oxide], for which the “freezing behavior in Post-Test A” value in the data set on contextual fear memory (vs control animals without induction, FIG. 3B) is reported as “comparable level of freezing behavior”. Besides, the “freezing in Post-Test B (neutral context)” value in the data set with contextual fear memory (all groups) is “negligible degree of freezing”. Moreover, the “SRS onset (duration of the latent phase)” value with pilocarpine model of TLE (QIH induced 24 h after midazolam, 48 h QIH, vs control animals in QIH chamber without induction, FIG. 2B) is given as “drastic delay in the SRS onset; also recorded: significantly delayed”. Further, the “severity of SRS (Racine scale)” value in the data set with pilocarpine model of TLE (QIH vs no QIH during the latent phase, FIG. 2C) was “no difference in the severity in the SRS”. Further, in the data set with pilocarpine model of TLE (as opposed to 1-2 weeks in the rodent model), the “time of SRS after induction of the hibernation-like state” value is “several months”. The “body temperature during QIH” value in data set [1] (after CNO injection (1 mg/kg i.p.), Qrfp-iCre mice with AAV-hSyn-DIO-hM3D(Gq)-mCherry in AVPe, FIG. 1A) is reported as “reduction in their body temperature”. Also, the “spike activity of individual pyramidal cells in the dorsal CA1” value in data set [1] (after QIH induction, FIG. 1C) was “rapid reduction in their spike activity”. For the same compound, the “power spectral density of LFP in the dorsal CA1” value in data set [1] (during QIH, FIG. 1B) is listed as “substantial reduction in broad frequency ranges”. Besides, the “time mice stay under QIH after injection” value in data set [1] (intraperitoneal CNO, spontaneous awakening and rewarming afterwards) worked out at 48 h. In addition, the “multi-unit activity recorded from the hypothalamus” value in data set [1] (upon QIH induction, FIG. 1D) is given as “reduced upon induction of QIH”.

On to `CC[C@@H](C(N)=O)N1CCCC1=O` [Levetiracetam], for which the “rate of psychiatric and behavioral side effects among the medications” value in data set [2] is given as “highest rates of side effects”.

Turning to `CC[C@@H]1C(=O)OC[C@@H]1Cc1cncn1C` [Pilocarpine, pilocarpine], the “time to seizures after injection” value in data set [3] (280 mg/kg i.p.) is “thirty”. For the same compound, the “duration of prolonged seizure (status epilepticus)” value in data set [3] (before termination with an anticonvulsant drug) was “about two”.

On to `NS(=O)(=O)Cc1noc2ccccc12` [Zonisamide], for which the “rate of psychiatric and behavioral side effects among the medications” value in data set [2] is recorded as “highest rates of side effects”.

`CCCl` [ethyl chloride]: the seizure outcome in data set [4] is reported as “complete remission from seizures”.
